Measurements: patent US9603889B2, “IAP antagonists” (BRISTOL-MYERS SQUIBB COMPANY, priority 2012, dated 2017)

The compounds below were run against XIAP BIR3 (N-His-Tb-BIR3(241-356, XIAP)) (Homo sapiens (Human), UniProt P98170). Details: 130 nM N-His-Tb-BIR3(241-356, XIAP), 1.4 nM fluoresceinated modified SMAC peptide, 60 minutes room temperature; read-out: XIAP BIR3 FPA IC50.
Type: binding

Chain of XIAP BIR3 (N-His-Tb-BIR3(241-356, XIAP)) (P98170 241-356): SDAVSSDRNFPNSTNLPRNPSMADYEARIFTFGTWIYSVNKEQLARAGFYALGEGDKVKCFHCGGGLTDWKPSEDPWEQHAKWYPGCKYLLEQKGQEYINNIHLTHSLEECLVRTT

Structure (SMILES) | IC50
CN[C@@H](C)C(=O)N[C@H](C(=O)N1C[C@@H](NC(=O)n2ccc3cc(CN(C(=O)[C@@H]4Cc5ccccc5CN4C(=O)[C@@H](NC(=O)[C@H](C)NC)C(C)(C)C)C(COC)c4ccccc4)ccc32)C[C@H]1C(=O)N[C@@H]1CCCc2ccccc21)C(C)(C)C (stereo in doubt) [Example 9, (S)-2-((S)-3,3-Dimethyl-2-((S)-2-(methylamino)propanamido)butanoyl)-N-((1-(((3S,5S)-1-((S)-3,3-dimethyl-2-((S)-2-(methylamino)propanamido)butanoyl)-5-(((R)-1,2,3,4-tetrahydronaphthalen-1-yl)carbamoyl)pyrrolidin-3-yl)carbamoyl)-1H-indol-5-yl)methyl)-N-((S)-2-methoxy-1-phenylethyl)-1,2,3,4-tetrahydroisoquinoline-3-carboxamide] | 130 nM
CNC(C)C(=O)N[C@H](C(=O)N1C[C@@H](NC(=O)c2ccc(C(=O)N(C[C@@H]3Cc4ccccc4CN3C(=O)[C@@H](NC(=O)[C@H](C)NC)C(C)(C)C)[C@H](C)Cc3ccccc3F)cc2)C[C@H]1C(=O)N[C@@H]1CCCc2ccccc21)C(C)(C)C (stereo in doubt) [Example 17, N^1-(((S)-2-((S)-3,3-dimethyl-2-((S)-2-(methylamino)propanamido)butanoyl)-1,2,3,4-tetra-hydroisoquinolin-3-yl)methyl)-N^4-((3S,5S)-1-((S)-3,3-dimethyl-2-((S)-2-(methyl-amino)propanamido)butanoyl)-5-(((R)-1,2,3,4-tetrahydro-naphthalen-1-yl)carbamoyl)pyrrolidin-3-yl)-N^1-((R)-1-(2-fluorophenyl)propan-2-yl) terephthalamide] | 100 nM
CN[C@@H](C)C(=O)N[C@H](C(=O)N1CC(NC(=O)c2cccc(CN(C(=O)[C@@H]3Cc4ccccc4CN3C(=O)[C@@H](NC(=O)[C@H](C)NC)C(C)(C)C)C(COC)c3ccccc3)c2)C[C@H]1C(=O)NC1CCCc2ccccc21)C(C)(C)C (stereo in doubt) [Example 39, (S)-2-((S)-3,3-Dimethyl-2-((S)-2-(methylamino)propanamido)butanoyl)-N-(3-(((3S,5S)-1-((S)-3,3-dimethyl-2-((S)-2-(methylamino)propanamido)butanoyl)-5-(((R)-1,2,3,4-tetrahydronaphthalen-1-yl)carbamoyl)pyrrolidin-3-yl)carbamoyl)benzyl)-N-((S)-2-methoxy-1-phenylethyl)-1,2,3,4-tetrahydroisoquinoline-3-carboxamide] | 80 nM
CN[C@@H](C)C(=O)N[C@H](C(=O)N1C[C@@H](NC(=O)c2ccc(CN(CCc3ccccc3)C(=O)[C@@H]3Cc4ccccc4CN3C(=O)[C@@H](NC(=O)[C@H](C)NC)C(C)(C)C)cc2)C[C@H]1C(=O)N[C@@H]1CCCc2ccccc21)C(C)(C)C [Example 2, (S)-2-((S)-3,3-Dimethyl-2-((S)-2-(methylamino)propanamido)butanoyl)-N-(4-(((3S,5S)-1-((S)-3,3-dimethyl-2-((S)-2-(methylamino)propanamido)butanoyl)-5-(((R)-1,2,3,4-tetrahydronaphthalen-1-yl)carbamoyl)pyrrolidin-3-yl)carbamoyl)benzyl)-N-phenethyl-1,2,3,4-tetrahydroisoquinoline-3-carboxamide] | 30 nM
CN[C@@H](C)C(=O)N[C@H](C(=O)N1C[C@@H](NC(=O)c2ccc(CN(C(=O)[C@@H]3Cc4ccccc4CN3C(=O)[C@@H](NC(=O)[C@H](C)NC)C(C)(C)C)[C@H](C)c3cccc(OC)c3)cc2)C[C@H]1C(=O)N[C@@H]1CCCc2ccccc21)C(C)(C)C [Example 3, (S)-2-((S)-3,3-Dimethyl-2-((S)-2-(methylamino)propanamido)butanoyl)-N-(4-(((3S,5S)-1-((S)-3,3-dimethyl-2-((S)-2-(methylamino)propanamido)butanoyl)-5-(((R)-1,2,3,4-tetrahydronaphthalen-1-yl)carbamoyl)pyrrolidin-3-yl)carbamoyl)benzyl)-N-((R)-1-(3-methoxyphenyl)ethyl)-1,2,3,4-tetrahydroisoquinoline-3-carboxamide] | 60 nM
CN[C@@H](C)C(=O)N[C@H](C(=O)N1C[C@@H](NC(=O)c2ccc(CN(C(=O)[C@@H]3Cc4ccccc4CN3C(=O)[C@@H](NC(=O)[C@H](C)NC)C(C)(C)C)[C@H](C)c3ccc(F)cc3)cc2)C[C@H]1C(=O)N[C@@H]1CCCc2ccccc21)C(C)(C)C [Example 4, (S)-2-((S)-3,3-Dimethyl-2-((S)-2-(methylamino)propanamido)butanoyl)-N-(4-(((3S,5S)-1-((S)-3,3-dimethyl-2-((S)-2-(methylamino)propanamido)butanoyl)-5-(((R)-1,2,3,4-tetrahydronaphthalen-1-yl)carbamoyl)pyrrolidin-3-yl)carbamoyl)benzyl)-N-((R)-1-(4-fluorophenyl)ethyl)-1,2,3,4-tetrahydroisoquinoline-3-carboxamide] | 100 nM
CN[C@@H](C)C(=O)N[C@H](C(=O)N1C[C@@H](NC(=O)c2ccc(CN(C(=O)[C@@H]3Cc4ccccc4CN3C(=O)[C@@H](NC(=O)[C@H](C)NC)C(C)(C)C)[C@H](C)c3ccccc3Cl)cc2)C[C@H]1C(=O)N[C@@H]1CCCc2ccccc21)C(C)(C)C [Example 5, (S)-N-((R)-1-(2-Chlorophenyl)ethyl)-2-((S)-3,3-dimethyl-2-((S)-2-(methylamino)propanamido)butanoyl)-N-(4-(((3S,5S)-1-((S)-3,3-dimethyl-2-((S)-2-(methylamino)propanamido)butanoyl)-5-(((R)-1,2,3,4-tetrahydronaphthalen-1-yl)carbamoyl)pyrrolidin-3-yl)carbamoyl)benzyl)-1,2,3,4-tetrahydroisoquinoline-3-carboxamide] | 220 nM
CCC[C@H](c1ccccc1)N(Cc1ccc(C(=O)N[C@H]2C[C@@H](C(=O)N[C@@H]3CCCc4ccccc43)N(C(=O)[C@@H](NC(=O)[C@H](C)NC)C(C)(C)C)C2)cc1)C(=O)[C@@H]1Cc2ccccc2CN1C(=O)[C@@H](NC(=O)[C@H](C)NC)C(C)(C)C [Example 7, (S)-2-((S)-3,3-Dimethyl-2-((S)-2-(methylamino)propanamido)butanoyl)-N-(4-(((3S,5S)-1-((S)-3,3-dimethyl-2-((S)-2-(methylamino)propanamido)butanoyl)-5-(((R)-1,2,3,4-tetrahydronaphthalen-1-yl)carbamoyl)pyrrolidin-3-yl)carbamoyl)benzyl)-N-((R)-1-phenylbutyl)-1,2,3,4-tetrahydroisoquinoline-3-carboxamide] | 190 nM
CN[C@@H](C)C(=O)N[C@H](C(=O)N1Cc2ccccc2C[C@H]1CN(CCc1ccccc1)C(=O)c1ccc(C(=O)N[C@H]2C[C@@H](C(=O)N[C@@H]3CCCc4ccccc43)N(C(=O)[C@@H](NC(=O)[C@H](C)NC)C(C)(C)C)C2)cc1)C(C)(C)C [Example 10, N^1-(((S)-2-((S)-3,3-Dimethyl-2-((S)-2-(methylamino)propanamido)butanoyl)-1,2,3,4-tetrahydroisoquinolin-3-yl)methyl)-N^4-((3S,5S)-1-((S)-3,3-dimethyl-2-((S)-2-(methylamino)propanamido)butanoyl)-5-(((R)-1,2,3,4-tetrahydronaphthalen-1-yl)carbamoyl)pyrrolidin-3-yl)-N^1-phenethylterephthalamide] | 60 nM
CN[C@@H](C)C(=O)N[C@H](C(=O)N1C[C@@H](NC(=O)c2ccc(CN(Cc3cccc(Cl)c3Cl)C(=O)[C@@H]3Cc4ccccc4CN3C(=O)[C@@H](NC(=O)[C@H](C)NC)C(C)(C)C)cc2)C[C@H]1C(=O)N[C@@H]1CCCc2ccccc21)C(C)(C)C [Example 11, (S)-N-(2,3-Dichlorobenzyl)-2-((S)-3,3-dimethyl-2-((S)-2-(methylamino)propanamido)butanoyl)-N-(4-(((3S,5S)-1-((S)-3,3-dimethyl-2-((S)-2-(methylamino)propanamido)butanoyl)-5-(((R)-1,2,3,4-tetrahydro-naphthalen-1-yl)carbamoyl)pyrrolidin-3-yl)carbamoyl)benzyl)-1,2,3,4-tetra-hydroisoquinoline-3-carboxamide] | 70 nM
CN[C@@H](C)C(=O)N[C@H](C(=O)N1C[C@@H](NC(=O)c2ccc(CN(CCc3ccc4ccccc4c3)C(=O)[C@@H]3Cc4ccccc4CN3C(=O)[C@@H](NC(=O)[C@H](C)NC)C(C)(C)C)cc2)C[C@H]1C(=O)N[C@@H]1CCCc2ccccc21)C(C)(C)C [Example 12, (S)-2-((S)-3,3-Dimethyl-2-((S)-2-(methylamino)propanamido)butanoyl)-N-(4-(((3S,5S)-1-((S)-3,3-dimethyl-2-((S)-2-(methyl-amino)propanamido)butanoyl)-5-(((R)-1,2,3,4-tetrahydro-naphthalen-1-yl)carbamoyl)pyrrolidin-3-yl)carbamoyl)benzyl)-N-(2-(naphthalen-2-yl)ethyl)-1,2,3,4-tetrahydro-isoquinoline-3-carboxamide] | 90 nM
CN[C@@H](C)C(=O)N[C@H](C(=O)N1C[C@@H](NC(=O)c2ccc(CN(Cc3ccccc3)C(=O)[C@@H]3Cc4ccccc4CN3C(=O)[C@@H](NC(=O)[C@H](C)NC)C(C)(C)C)cc2)C[C@H]1C(=O)N[C@@H]1CCCc2ccccc21)C(C)(C)C [Example 13, (S)-N-Benzyl-2-((S)-3,3-dimethyl-2-((S)-2-(methylamino)propanamido)butanoyl)-N-(4-(((3S,5S)-1-((S)-3,3-dimethyl-2-((S)-2-(methylamino)propanamido)butanoyl)-5-(((R)-1,2,3,4-tetrahydro-naphthalen-1-yl)carbamoyl)pyrrolidin-3-yl)carbamoyl)benzyl)-1,2,3,4-tetra-hydroisoquinoline-3-carboxamide] | 40 nM

Same assay, conditions: read-out: XIAP BIR3 FPA IC50

Structure (SMILES) | IC50
CN[C@@H](C)C(=O)N[C@H](C(=O)N1CC(NC(=O)CN(C(=O)[C@@H]2Cc3ccccc3CN2C(=O)[C@@H](NC(=O)[C@H](C)NC)C(C)(C)C)C(COC)c2ccccc2)C[C@H]1C(=O)NC1CCCc2ccccc21)C(C)(C)C (stereo in doubt) [Example 40, (S)-2-((S)-3,3-Dimethyl-2-((S)-2-(methylamino)propanamido)butanoyl)-N-(2-(((3S,5S)-1-((S)-3,3-dimethyl-2-((S)-2-(methylamino)propanamido)butanoyl)-5-(((R)-1,2,3,4-tetrahydronaphthalen-1-yl)carbamoyl)pyrrolidin-3-yl)amino)-2-oxoethyl)-N-((S)-2-methoxy-1-phenylethyl)-1,2,3,4-tetrahydroisoquinoline-3-carboxamide] | 60 nM
